Experimental data taken from patent publication US11214803B2, “Modulators of YAP1 expression” (Ionis Pharmaceuticals, Inc., priority 2019, dated 2022).
Strand notation (5' to 3'): a small letter for the sugar, then the base; units joined by * are phosphorothioate-linked, units joined directly phosphodiester-linked; [ ] holds rarer units or linkages, { } end groups; capitals alone tell only the bases. e = 2'-O-(2-methoxyethyl) (MOE); k = constrained ethyl (cEt); [5mC] = 5-methylcytosine; d = 2'-deoxy (DNA); m = 2'-O-methyl

tested on: Yap1 mRNA; test: Antisense inhibition of human Yap1 in SNU-449 cells by modified oligonucleotides, single dose (Example 5, RTS36584); type: cell-based; conditions: Table 39; SNU-449 cells, 10,000 cells per well, free uptake, 2,000 nM oligonucleotide, approx. 48 hours; RTS36584; normalized to RIBOGREEN; Yap1 mRNA relative to untreated control
Method in brief: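 SNU-449 cells (10,000/well) took up 2,000 nM oligonucleotide by free uptake for about 48 h. Yap1 mRNA was measured by qRT-PCR with primer probe set RTS36584 and normalised to RIBOGREEN total RNA. Values are % of untreated control; asterisked oligos target the amplicon region.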

With “1198386 (kT*dA*dT*dA*dT*dT*dA*dG*dA*dG*dT*kA*eT*kG*eT*kG; antisense) [Compound 1198386]” the “YAP1 (% UTC)” value was 77 % UTC.

same assay, conditions: Table 40 (separate experiment); SNU-449 cells, 10,000 cells per well, free uptake, 2,000 nM oligonucleotide, approx. 48 hours; RTS36584; normalized to RIBOGREEN; Yap1 mRNA relative to untreated control

Point of comparison: “1198723 (kA*eG*kT*dA*dT*dG*dT*dG*dG*d[5mC]*dA*dA*eT*eA*kA*kT; antisense) [Compound 1198723]”, “YAP1 (% UTC)” value 57 % UTC. Against it:
- 1198440 (kA*dA*dG*dT*dG*dT*dA*dT*dG*dT*d[5mC]*kA*eG*kA*eA*kG) [Compound 1198440] — lower, 5 % UTC
- 1198801 (antisense kG*eA*k[5mC]*dT*dA*dA*dG*dT*dA*dA*dG*dG*eT*eT*kT*k[5mC]) [Compound 1198801] — lower, 47 % UTC

same assay, conditions: Table 41; SNU-449 cells, 10,000 cells per well, free uptake, 2,000 nM modified oligonucleotide, approximately 48 hours; RTS36584; normalized to RIBOGREEN; Yap1 mRNA relative to untreated control cells

Point of comparison: “1198638 (kA*kG*dA*dG*dT*dA*dT*dG*dT*dG*dG*d[5mC]*kA*eA*kT*eA; antisense) [Compound 1198638]”, “YAP1 (% UTC)” value 18 % UTC. Against it:
- 1198768 (kA*eT*kA*dT*dG*dG*dT*dT*dT*dT*dG*dT*eG*eT*kG*kT; antisense) [Compound 1198768] — higher, 61 % UTC

same assay, conditions: Table 42 (separate experiment); SNU-449 cells, 10,000 cells per well, free uptake, 2,000 nM modified oligonucleotide, approximately 48 hours; RTS36584; normalized to RIBOGREEN; Yap1 mRNA relative to untreated control cells

Point of comparison: “1198709 (k[5mC]*kT*dA*dA*dG*dT*dA*dA*dG*dG*dT*dT*kT*e[5mC]*k[5mC]*e[5mC]; antisense) [Compound 1198709]”, “YAP1 (% UTC)” value 29 % UTC. Against it:
- 1198230 (kG*kG*dA*dA*dG*dA*dT*d[5mC]*dT*dG*dA*eA*eA*e[5mC]*kT*k[5mC]) [Compound 1198230] — higher, 81 % UTC
- 1198232 (kT*kT*dT*dG*dG*dA*dA*dG*dA*dT*d[5mC]*eT*eG*eA*kA*kA) [Compound 1198232] — higher, 92 % UTC
- 1198679 (antisense TTATATGGTTTTGTGT; cEt/MOE gapmer, phosphorothioate, chemistry not fully specified) [Compound 1198679] — higher, 54 % UTC
- 1198705 (kT*kA*dA*dG*dG*dT*dT*dT*d[5mC]*d[5mC]*d[5mC]*dA*kG*eA*kT*eT; antisense) [Compound 1198705] — higher, 70 % UTC
- 1198208 (kA*kG*dA*dG*dT*dA*dT*dG*dT*dG*dG*e[5mC]*eA*eA*kT*kA; antisense) [Compound 1198208] — lower, 25 % UTC

same assay, conditions: Table 43 experiment; SNU-449 cells, 10,000 cells per well, free uptake, 2,000 nM, approximately 48 hours; RTS36584; Yap1 mRNA normalized to RIBOGREEN, relative to untreated control cells

Point of comparison: “1198273 (k[5mC]*kT*dT*dT*dA*dA*dA*dG*dT*dG*dT*eA*eT*eG*kT*k[5mC]; antisense) [Compound 1198273]”, “YAP1 (% UTC)” value 52 % UTC. Against it:
- 1198269 (kA*kA*dA*dG*dT*dG*dT*dA*dT*dG*dT*e[5mC]*eA*eG*kA*kA; antisense) [Compound 1198269] — higher, 58 % UTC

same assay, conditions: Table 44 experiment; SNU-449 cells, 10,000 cells per well, free uptake, 2,000 nM, approximately 48 hours; RTS36584; Yap1 mRNA normalized to RIBOGREEN, relative to untreated control cells

Point of comparison: “1198892 (kA*kA*dT*dT*dG*dT*d[5mC]*dT*d[5mC]*dA*dT*kG*d[5mC]*k[5mC]*dT*kT) [Compound 1198892]”, “YAP1 (% UTC)” value 24 % UTC. Against it:
- 1198493 (antisense kT*kG*d[5mC]*dT*dT*dT*dG*dG*dA*dA*dG*eA*kT*e[5mC]*kT*eG) [Compound 1198493] — higher, 28 % UTC

same assay, conditions: Table 45; Yap1 mRNA as percent of untreated control, SNU-449 cells, single dose

Point of comparison: “1198967 (kT*kA*dA*dG*dG*dT*dT*dT*d[5mC]*d[5mC]*d[5mC]*kA*dG*kA*dT*kT; antisense) [Compound 1198967]”, “YAP1 (% UTC)” value 65 % UTC. Against it:
- 1198893 (kA*kA*dA*dT*dT*dG*dT*d[5mC]*dT*d[5mC]*dA*kT*dG*k[5mC]*d[5mC]*kT; antisense) [Compound 1198893] — lower, 58 % UTC
- 1198923 (kT*kT*dG*dG*dA*dA*dG*dA*dT*d[5mC]*dT*kG*dA*kA*dA*k[5mC]; antisense) [Compound 1198923] — higher, 73 % UTC
- 1198910 (kA*kG*dG*dT*dA*dT*dA*dA*d[5mC]*dT*dG*kG*dG*k[5mC]*dA*kA; antisense) [Compound 1198910] — lower, 40 % UTC
- 1198945 (kA*k[5mC]*dT*d[5mC]*dT*dT*dA*dT*dA*dT*dG*kG*dT*kT*dT*kT; antisense) [Compound 1198945] — lower, 48 % UTC
- 1198955 (kA*kT*dG*dT*dA*dA*dT*dA*dT*dT*dG*k[5mC]*dA*kA*dT*k[5mC]; antisense) [Compound 1198955] — higher, 92 % UTC
- 1198919 (A_{ks}G^{m}C_{ds}A_{ds}^{m}C_{ds}T_{ds}T_{ds}T_{ds}T_{ds}A_{ds}^{m}C_{ds}A_{ks}T_{ds}T_{ks}A_{ds}G_{k}; modified gapmer, phosphorothioate, as printed in the source, key not given here) [Compound 1198919] — lower, 60 % UTC

same assay, conditions: Table 46; Yap1 mRNA as percent of untreated control, SNU-449 cells, single dose

Point of comparison: “1198871 (kT*kT*dT*dA*dT*dG*dT*dA*dA*dT*dA*kT*eT*kG*e[5mC]*kA; antisense) [Compound 1198871]”, “YAP1 (% UT)” value 77 % UT. Against it:
- 1198884 (kT*kA*dA*dG*dT*dA*dA*dG*dG*dT*dT*kT*e[5mC]*k[5mC]*e[5mC]*kA; antisense) [Compound 1198884] — lower, 28 % UT
- 1198808 (antisense kG*kA*dA*dA*dT*dT*dG*dT*d[5mC]*dT*d[5mC]*kA*eT*kG*e[5mC]*k[5mC]) [Compound 1198808] — lower, 40 % UT
- 1198820 (kT*kA*dT*dA*dT*dT*dA*dG*dA*dG*dT*kA*eT*kG*eT*kG; antisense) [Compound 1198820] — lower, 62 % UT

same assay, conditions: Table 48; Yap1 mRNA level relative to untreated control; modified oligonucleotides targeting SEQ ID NO.: 1 and 2

Point of comparison: “1197217 (antisense kT*kT*kA*dA*dA*dG*dT*dG*dT*dA*dT*dG*dT*k[5mC]*kA*kG) [Compound 1197217]”, “YAP1 (% UT)” value 8 % UT. Against it:
- 1197214 (antisense kA*kG*kT*dG*dT*dA*dT*dG*dT*d[5mC]*dA*dG*dA*kA*kG*kA) [Compound 1197214] — lower, 5 % UT
- 1198289 (kG*kG*kA*dA*dA*dT*dT*dG*dT*d[5mC]*dT*d[5mC]*kA*eT*kG*e[5mC]; antisense) [Compound 1198289] — higher, 12 % UT
- 1197215 (antisense kA*kA*kG*dT*dG*dT*dA*dT*dG*dT*d[5mC]*dA*dG*kA*kA*kG) [Compound 1197215] — higher, 13 % UT

same assay, conditions: Table 49; Yap1 mRNA level relative to untreated control; modified oligonucleotides targeting SEQ ID NO.: 1 and 2

Point of comparison: “1198571 (antisense kA*kG*k[5mC]*dA*d[5mC]*dT*dT*dT*dT*dA*d[5mC]*dA*kT*kT*kA*eG) [Compound 1198571]”, “YAP1 (% UT)” value 32 % UT. Against it:
- 1198573 (antisense kT*kT*kA*dA*dG*d[5mC]*dA*d[5mC]*dT*dT*dT*dT*kA*k[5mC]*kA*eT) [Compound 1198573] — higher, 76 % UT
- 1198360 (kA*kA*k[5mC]*dT*dT*dT*dA*dA*dA*dG*dT*dG*kT*eA*kT*eG; antisense) [Compound 1198360] — higher, 74 % UT

same assay, conditions: Table 50; Yap1 mRNA remaining as percent of untreated control (UT), SNU-449 cells, single dose

Point of comparison: “1198587 (antisense kG*kA*kT*dT*dT*dA*dG*dG*dA*dT*dG*d[5mC]*kA*kT*kG*eG) [Compound 1198587]”, “YAP1 (% UT)” value 41 % UT. Against it:
- 1198564 (antisense kA*kA*k[5mC]*dA*d[5mC]*dT*dG*dA*dG*dG*dT*dA*kT*kA*kA*e[5mC]) [Compound 1198564] — higher, 44 % UT
- 1198596 (antisense k[5mC]*kT*k[5mC]*dT*dT*dA*dT*dA*dT*dG*dG*dT*kT*kT*kT*eG) [Compound 1198596] — lower, 16 % UT
- 1198603 (antisense kA*kA*kT*dA*dT*dT*dG*d[5mC]*dA*dA*dT*d[5mC]*kT*kG*kT*e[5mC]) [Compound 1198603] — higher, 51 % UT

same assay, conditions: Table 51; Yap1 mRNA remaining as percent of untreated control (UT), SNU-449 cells, single dose

Point of comparison: “1197240 (antisense k[5mC]*kT*kG*dA*mG*dG*dT*dA*dT*dA*dA*d[5mC]*dT*kG*kG*kG) [Compound 1197240]”, “YAP1 (% UT)” value 58 % UT. Against it:
- 1200797 (kA*kT*kT*dA*dG*mA*dG*dT*dA*dT*dG*dT*dG*kG*k[5mC]*kA; antisense) [Compound 1200797] — lower, 11 % UT
- 1197311 (kT*kT*kT*dA*mU*dG*dT*dA*dA*dT*dA*dT*dT*kG*k[5mC]*kA; antisense) [Compound 1197311] — lower, 27 % UT
- 1197269 (kT*kA*kA*dA*mG*dT*dG*dT*dA*dT*dG*dT*d[5mC]*kA*kG*kA) [Compound 1197269] — lower, 3 % UT

same assay, conditions: Table 52; Yap1 mRNA, modified oligonucleotides targeting SEQ ID NO: 1 and 2

Point of comparison: “1200792 (kA*kT*kA*dT*dG*mG*dA*dA*dA*dT*dT*dG*dT*k[5mC]*kT*k[5mC]; antisense) [Compound 1200792]”, “YAP1 (% UT)” value 52 % UT. Against it:
- 1200864 (kA*kA*k[5mC]*dT*dT*mU*dA*dA*dA*dG*dT*dG*dT*kA*kT*kG; antisense) [Compound 1200864] — higher, 84 % UT
- 1200868 (kT*kA*kA*dG*dT*mA*dA*dG*dG*dT*dT*dT*d[5mC]*k[5mC]*k[5mC]*kA; antisense) [Compound 1200868] — lower, 36 % UT

same assay, conditions: Yap1 mRNA, percent of untreated control; modified oligonucleotides targeting SEQ ID NO: 1 and 2; Table 47

Point of comparison: “1198880 (kA*kA*d[5mC]*dT*dT*dT*dA*dA*dA*dG*dT*kG*eT*kA*eT*kG; antisense) [Compound 1198880]”, “YAP1 (% UT)” value 98 % UT. Against it:
- 1009325 (kA*kG*kA*dG*dT*dA*dT*dG*dT*dG*dG*d[5mC]*dA*kA*kT*kA; antisense) [Compound 1009325] — lower, 16 % UT
- 1198858 (k[5mC]*kT*d[5mC]*dT*dT*dA*dT*dA*dT*dG*dG*kT*eT*kT*eT*kG) [Compound 1198858] — lower, 29 % UT
